The text below walks through data of patent US9089601B2, “Pre- and intra-operative imaging of bladder cancer” (University of Rochester, priority 2006, dated 2015).

One data set has as its system mammals. The following applies: cited from earlier work; for neuronal toxicity: used in mammals.
In data set [1] the test system is UPII-SV40T transgenic mice. Description: Intravesical instillation of ICG and intraoperative NIRF identification of lymphatic channels and SLNs in bladder tumor mice. Format: in vivo.
For data set [2] the following is noted: cited from earlier work.

For the compound `N=C(N)c1ccc(/C=C/c2ccc(C(=N)N)cc2O)cc1` [Fluorogold], the neuronal toxicity entry in the data set with mammals is on record as “low evidence of neuronal toxicity”.
Regarding `CC1(C)C(/C=C/C=C/C=C/C=C2\N(CCCCS(=O)(=O)O)c3ccc4ccccc4c3C2(C)C)=[N+](CCCCS(=O)(=O)[O-])c2ccc3ccccc3c21` [ICG, indocyanine green], the “animals showing draining lymphatic channels and SLNs” value in data set [1] (12 female mice, intravesical ICG 2.5 mg/mf, 100 or 200 μl, NIRF 20, 30 and 60 minutes later) was found to be 12 animals. For the same compound, in data set [1] (dye instilled at 10, 20, 30, or 60 minutes before imaging), the “visualization of SLNs by intraoperative imaging” value is “successfully visualized”. Moreover, the “sentinel nodes detected per animal” value in data set [1] (in all animals, intravesical ICG, NIRF) is listed as “At least two”. Besides, the “location of SLNs” value in data set [1] (intravesical ICG, NIRF) was “common or external iliac lymphatic chains”. Also, the “fluorescence of lymphatic channels and nodes following instillation of the dye into the bladder” value in data set [1] (mouse, FIG. 1B and 1C) is “fluorescing of the mouse's lymphatic channels and nodes on iliac bifurcation”. In data set [2] (in the body), the metabolism result was “not metabolized”. Also, in data set [2] (in vivo), the excretion entry is “excreted exclusively by the liver”; the “reabsorption from the intestine / enterohepatic recirculation” value is “not reabsorbed from the intestine and does not undergo enterohepatic recirculation”. In the data set on mammals (in vivo), the toxicity entry is listed as “low toxicity”. Further, in the data set on mammals, the neuronal toxicity result is “low evidence of neuronal toxicity”.
For the compound Fast Blue, the neuronal toxicity entry with mammals was “low evidence of neuronal toxicity”.
